{"source": "paper PMC10028969", "about": "(bioRxiv, 2023)", "key": {"T. b. brucei Lister 427 [1]": {"tested_on": "T. b. brucei Lister 427", "experiment": "SYBR Green viability assay with T. brucei", "assay_type": "cell-based", "conditions": "Trypanosoma brucei, 72 h, read-out: T. b. brucei Lister 427 EC50 (nM) ± SD"}, "[2]": {"experiment": "HEK-293 counter-screen assay", "assay_type": "cell-based", "conditions": "human, HEK-293 cells"}, "T. b. brucei Lister 427 [3]": {"tested_on": "T. b. brucei Lister 427", "experiment": "Time-kill assays", "assay_type": "cell-based", "conditions": "Trypanosoma brucei, 12 h, read-out: parasite viability"}, "T. b. brucei Lister 427 [4]": {"tested_on": "T. b. brucei Lister 427", "experiment": "Mouse model of T. brucei infection", "assay_type": "in vivo, Trypanosoma brucei brucei"}}, "data": [{"molecule": "N=C(N)c1ccc(OCCCCCOc2ccc(C(=N)N)cc2)cc1", "note": "[Pentamidine, pentamidine]", "values": [{"measurement": "EC50", "setting": "T. b. brucei Lister 427 [1]", "value": "69.6 ± 35.5", "unit": "nM"}, {"measurement": "CC50 at 48 h", "setting": "[2]", "value": "> 4000", "unit": "nM"}, {"measurement": "viability at 4 µM", "setting": "T. b. brucei Lister 427 [3]", "value": 52.8, "unit": "%"}, {"measurement": "mouse survival", "setting": "T. b. brucei Lister 427 [4]; 4 mg/kg i.p. on day 2, end of the study, without parasite recrudescence", "value": "≥ 15", "unit": "day post-infection"}, {"measurement": "parasitemia within 24 h of administration", "setting": "T. b. brucei Lister 427 [4]; single i.p. dose 4 mg/kg on day 2 post-infection, BALB/c female mice", "value": "< 2.5 × 10^5 parasites/ml"}]}]}
